Laboratory results: ChEMBL document CHEMBL2202993, “Non-proteinogenic amino acids in the pThr-2 position of a pentamer peptide that confer high binding affinity for the polo box domain (PBD) of polo-like kinase 1 (Plk1)” (Bioorg Med Chem Lett, 2012)
Numbered stars: 1 amine (or outer) side, 2 acyl side, 3 side chain; on linkers, the order of the positions; unused ones are H or OH. Square brackets hold non-standard residues; d marks the D form. Peptide text beside a SMILES is read from it. X2 = O=C([C@H](Cc1cn(CCCCCCCCc2ccccc2)c2ccccc12)N[*:1])[*:2]; X1 = O=C([C@H](Cc1cn(CCCCCCCCc2ccccc2)cn1)N[*:1])[*:2]; pT = C[C@@H](OP(=O)(O)O)[C@H](N)C(=O)O

Target: Serine/threonine-protein kinase PLK1 (Homo sapiens, UniProt P53350)
Assay: Competitive binding affinity to GFP-HA-fused PLK1 polo box domain expressed in HEK293A cells using biotinylated p-T38 peptide as substrate after 1 hr by ELISA
Parameters: species or system HEK293-A

Serine/threonine-protein kinase PLK1, sequence (P53350 whole entry, the tested form may be a part): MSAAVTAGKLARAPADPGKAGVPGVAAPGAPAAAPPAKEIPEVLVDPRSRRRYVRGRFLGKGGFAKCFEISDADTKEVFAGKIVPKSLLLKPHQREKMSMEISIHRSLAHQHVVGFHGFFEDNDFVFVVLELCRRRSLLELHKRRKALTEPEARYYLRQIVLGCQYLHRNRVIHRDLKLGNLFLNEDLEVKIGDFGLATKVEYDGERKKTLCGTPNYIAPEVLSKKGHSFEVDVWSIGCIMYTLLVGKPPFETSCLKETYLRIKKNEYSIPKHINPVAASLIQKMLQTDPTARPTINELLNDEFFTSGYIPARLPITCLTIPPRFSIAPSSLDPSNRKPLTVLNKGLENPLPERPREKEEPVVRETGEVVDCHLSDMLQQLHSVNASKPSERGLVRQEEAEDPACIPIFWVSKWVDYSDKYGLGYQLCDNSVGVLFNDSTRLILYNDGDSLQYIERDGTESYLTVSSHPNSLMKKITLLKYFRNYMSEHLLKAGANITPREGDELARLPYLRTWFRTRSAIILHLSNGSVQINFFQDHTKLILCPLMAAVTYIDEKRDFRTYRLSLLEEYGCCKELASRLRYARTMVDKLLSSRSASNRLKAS

SMILES	IC50 [µM]
CC(=O)N1CCC[C@H]1C(=O)N[C@@H](CC(C)C)C(=O)N[C@@H](Cc1cn(CCCCCCCCc2ccccc2)cn1)C(=O)N[C@@H](CO)C(=O)N[C@H](C(N)=O)[C@@H](C)OP(=O)(O)O (Ac-PL[X1]S[pT]-NH2)	0.32
CC(=O)N1CCC[C@H]1C(=O)N[C@@H](CC(C)C)C(=O)N[C@@H](Cc1cn(CCCCCCCCc2ccccc2)c2ccccc12)C(=O)N[C@@H](CO)C(=O)N[C@H](C(N)=O)[C@@H](C)OP(=O)(O)O (Ac-PL[X2]S[pT]-NH2)	9.3
